This note sets out measurements from patent US12319954B2, “Morphinan compounds” (Concert Pharmaceuticals, Inc., priority 2007, dated 2025).

A short description of series [1]: Metabolic stability in human liver microsomes. Particulars: for remained intact after 30 minutes of incubation: 0.25 μM compound, 2 mg/mL human liver microsomes, FIG. 2. On the procedure: (§1) The objectives of this study were to determine the metabolic stability of the test compounds in pooled human and […] liver microsomal incubations. Samples of the test compounds, exposed to pooled human or […] liver microsomes, were analyzed using HPLC-MS (or MS/MS) detection. For determining metabolic stability, multiple reaction monitoring (MRM) was used to measure the disappearance of the test compounds.
(§2) Experimental Procedures: Human liver and Cynomolgus monkey liver microsomes were obtained from XenoTech, LLC (Lenexa, KS). The incubation mixtures were prepared as follows:
(§3) Incubation of Test Compounds with Liver Microsomes: The reaction mixture, minus cofactors, was prepared. An aliquot of the reaction mixture (without cofactors) was incubated in a shaking water bath at 37° C. for 3 minutes. Another aliquot of the reaction mixture was prepared as the negative control. The test compound was added into both the reaction mixture and the negative control at a final concentration of 0.10, 0.25, or 1 μM. An aliquot of the reaction mixture was prepared as a blank control, by the addition of plain organic solvent (no test compound is added). The reaction was initiated by the addition of cofactors (not added to the negative controls), and then incubated in a shaking water bath at 37° C. Aliquots (200 μL) were withdrawn in triplicate at multiple time points and combined with 800 μL of ice-cold 50/50 acetonitrile/dH2O to terminate the reaction.
All samples were analyzed using LC-MS (or MS/MS). An LC-MRM-MS/MS method is used for metabolic stability. For testing in cynomolgus monkey liver microsomes, a final concentration of 1 μM of each compound and 0.5 mg/mL of microsomes were used.
(In general: Liver microsomes are vesicles of endoplasmic reticulum, rich in cytochrome P450 enzymes.)

Series [2] can be described thus: Metabolic stability in cynomolgus monkey liver microsomes. As to conditions: 1 μM compound, 0.5 mg/mL microsomes; FIG. 1. On the procedure: as §1, §2
as §3, with “Aliquots (200 μL) were withdrawn in triplicate at multiple time points and combined with 800 μL of ice-cold 50/50 acetonitrile/dH2O to terminate the reaction.” left out
All samples were analyzed using LC-MS (or MS/MS). […]

The nature of series [3]: Plasma levels in cynomolgus monkeys after oral BID co-dosing of Compound 101 and dextromethorphan, with or without quinidine. It counts as in vivo.
Method: Blood Sample Collection—Blood sampling tOOK place on Day 6 after oral administration of the last dose (Dose 11). Blood (approximately 1 mL) was collected via femoral vein into tubes containing sodium heparin anticoagulant at 0.25, 0.5, 1, 1.5, 2, 3.5, 6 and 8 hours. The plasma was separated via centrifugation and stored in −20° C. before analysis.
Dilution using cynomolgus monkey plasma blank were applied if the sample concentration was over the ULOQ of calibration standard curve. The data acquisition and control system was created using Analyst 1.4 software from ABI Inc.
For series [4] the following is noted: monkeys, FIG. 6. As for the experimental part: OBJECTIVE—The objective of this study was to collect plasma samples from Cynomolgus Monkeys at various time points following oral administration of test articles in combination. The samples were used for the determination of plasma drug levels by LC/MS/MS for estimating pharmacokinetic parameters. This study was conducted in accordance with Shanghai Medicilon Inc. Standard Operating Procedures (SOPs). The Sponsor provided the test compounds and internal standard compound.
EXPERIMENTAL DESIGN—Four Cynomolgus Monkeys were used in this study.
The combination dose was prepared by mixing both by 1:1 to yield a concentration of 1 mg/mL for each compound. […] Quinidine was prepared in DMI:EtOH:PG:water (10:15:35:40, v/v/v/v) at 3 mg/mL and dosed separately. The doses were given BID orally with an interval of 12 hours. […] Dosing volume of Quinidine was determined based on the dose each animal was getting. Dose volumes for each test animal was determined based on individual body weight. Body weights were taken on each day of dose administration and were be recorded.
Urine Sample Collection—Urine samples in between two doses on Day 5 (for 12 hours between doses 9 and 10) were collected in a plate and quantified by volume. After collection, the urine samples were be stored in −20° C. and then shipped back to client. […]

The target in series [5] is T1, Human CYP2D6+P450 Reductase SUPERSOMES (Homo sapiens, UniProt P10635).
T1 construct: purchased GenTest (Woburn, MA, USA); host or cells: insect cells (inferred from the negative control, insect cell microsomes)
T1 sequence (P10635 whole entry): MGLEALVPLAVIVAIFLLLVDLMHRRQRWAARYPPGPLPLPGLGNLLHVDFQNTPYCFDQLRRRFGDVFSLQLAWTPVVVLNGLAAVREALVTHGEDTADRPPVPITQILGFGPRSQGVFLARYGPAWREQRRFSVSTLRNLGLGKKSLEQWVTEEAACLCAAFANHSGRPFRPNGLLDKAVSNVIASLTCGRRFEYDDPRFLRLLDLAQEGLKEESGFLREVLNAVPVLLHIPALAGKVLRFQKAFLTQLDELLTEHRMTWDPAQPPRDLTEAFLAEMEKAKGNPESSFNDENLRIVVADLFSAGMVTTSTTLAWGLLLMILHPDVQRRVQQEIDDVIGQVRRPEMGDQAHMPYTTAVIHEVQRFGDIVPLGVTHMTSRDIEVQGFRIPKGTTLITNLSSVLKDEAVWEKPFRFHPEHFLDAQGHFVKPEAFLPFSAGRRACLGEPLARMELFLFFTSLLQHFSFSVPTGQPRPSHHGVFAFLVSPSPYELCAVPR
Kind of series: Metabolic stability in CYP2D6 SUPERSOMES
It is filed as in vitro ADME. As to conditions: 0.1 μM compound, 20 minutes. As for the experimental part:
Human CYP2D6+P450 Reductase SUPERSOMES™ were purchased from GenTest (Woburn, MA, USA). […] Aliquots (50 μL) were removed from each sample and placed in wells of a multi-well plate at 0, 2, 5, 7, 12, 20, and 30 minutes and to each was added 50 μL of ice cold acetonitrile with 3 μM haloperidol as an internal standard to stop the reaction.
Plates containing the removed aliquots were then placed in −20° C. freezer for 15 minutes to cool. After cooling, 100 μL of deionized water was added to all wells in the plate. Plates were then spun in the centrifuge for 10 minutes at 3000 rpm. A portion of the supernatant (100 μL) was then removed, placed in a new plate and analyzed using Mass Spectrometry.

With “(+)-3-d3-methoxy-17-methyl-(9α, 13α, 14α)-morphinan [Compound 100]”, the “remained intact after 30 minutes of incubation” value (from here on “remained intact after 30 minutes”) in series [1] is on record as ~42%. In series [1] (0.5 mg/mL human liver microsomes), the “remained intact after a 30 minute exposure” value is recorded as ~71%. The “stability in monkey liver microsomes compared with dextromethorphan” value in series [2] was “greater stability than dextromethorphan”.
As to `[2H]C([2H])([2H])Oc1ccc2c(c1)[C@]13CCCC[C@@H]1[C@H](C2)N(C([2H])([2H])[2H])CC3` [Compound 101, (+)-3-d3-methoxy-17-d3-methyl-(9α, 13α, 14α)-morphinan], in series [1], the “remained intact after 30 minutes” value is given as “approximately 45%”. Besides, the “stability in monkey liver microsomes compared with dextromethorphan” value in series [2] is on record as “greater stability than dextromethorphan”. Moreover, the “plasma levels compared to dextromethorphan” value in series [3] (co administered with the same amount of quinidine, FIG. 5) was “greater than dextromethorphan plasma levels”. The “metabolism to deuterated dextrorphan isotopologues (plasma)” value in series [3] (no quinidine, FIG. 4) is given as “reduced relative to metabolism of dextromethorphan to dextrorphan”. For the same molecule, in series [4] (at the same quinidine concentration), the “urine level of parent compound compared to dextromethorphan” value is reported as “less Compound 101 in the urine than dextromethorphan”.
As to `COc1ccc2c(c1)[C@]13CCCC[C@@H]1[C@H](C2)N(C)CC3` [Dextromethorphan, (+)-3-methoxy-17-methyl-(9α, 13α, 14α)-morphinan, reference compound], the “remained intact after 30 minutes” value in series [1] is “about 33%”. The “intact compound at the 20 minute time point with 2D6 Supersomes” value in series [5] is “no intact dextromethorphan could be detected”. Further, the “urine levels, effect of quinidine concentration” value in series [4] is reported as “affected by increasing quinidine concentration”.
